Assay results: US20230416245A1, “ADENOSINE ANALOGS FOR THE TREATMENT OF DISEASE” (BIOINTERVENE, INC., priority 2020, published 2023)

Tests used:
[1] = biological target: ADORA3 (Homo sapiens (Human), UniProt P0DMS8); assay: Intracellular calcium release assay (FLIPR); assay type: cell-based; conditions: for EC50: CHO-K1 cells, Fluo-4, top concentration 10 μM, read-out: Cell Calcium Assay EC50; for Cell Calcium Efficacy (%): percentage of the response to NECA
Experimental: Example 32: Intracellular Calcium Release Assay
Cell Culture: The table below lists the cell lines used that stably express the 4 subtypes of adenosine receptors, along with the growth medium used for each:
For experiments with the ADORA1- and ADORA3-expressing cells, the medium was aspirated and the cells washed twice with 10 mL DPBS. Two mL of trypsin was added and incubated at 37° C. for 1 minute. Then 10 mL of platting media was added to terminate the digestion and 1 mL of the solution was taken out for cell counting. ADORA2A- and ADORA2B-expressing cells were thawed rapidly in a 37° C. water bath. Cell suspensions were transferred to 50 mL conical tubes. Plating media was added to the 10 mL mark and then 1 mL taken out for cell counting. The 50 mL tubes containing the various types of cells were centrifuged at 1000 g. Then the supernatants were aspirated, being careful not to aspirate the cells. The cell pellets were resuspended in 3-5 mL platting media, then 0.5 mL was taken out for cell counting. Then the cell suspension was diluted to 1×10^6 cells/mL (20,000 cells per 20 μL per well) in platting medium, and cells were seeded into 384-well cell plates (Greiner-781946). The 384-well cell plate was placed in a 37° C./5% CO2 incubator (Thermo-371, Thermo Scientific) for 16-20 hours.
Preparation of the intracellular calcium imaging agent (Fluo-4 Direct™ Calcium Assay Kit, Invitrogen-F10471, Thermo Scientific): One mL of FLIPR Assay Buffer was added to 77 mg probenecid to make a 250 mM solution, which was used fresh for each day. One vial of Fluo-4 Direct™ crystals was thawed and 10 mL of FLIPR Assay Buffer was added to the vial. 0.2 mL of probenecid was added to each 10 mL vial of Fluo-Direct™ solution, such that the final assay concentration was 2.5 mM. It was vortexed, left to stand >5 min and protected from light. The dye was prepared fresh each day.
Compound Preparation: Compound plates were prepared as follows. First, the test compound was diluted to prepare a 2 mM solution and then 10-point 3-fold serial dilutions were made using ECHO (ECHO 555, LabCyte), then 900 nL was transferred to the compound plate. For all targets, the final top concentration of the test compound was […]. For agonist reference compounds, 10-point and 3-fold serial dilutions were made, then 900 nL was transferred to the assay plate. Then 30 μL of assay buffer was added to the compound plate and then the plate was centrifuged at 1000 rpm for 1 min.
FLIPR Assay: Cell plates were removed from the incubator, to which were added 20 μL 2×Fluo-4 Direct™ solution, then the plates were reincubated in a 5% CO2, 37° C. incubator for 50 min and at RT for 10 min. To run the protocol on the Fluorescent Imaging Plate Reader (FLIPR) TETRA (MD-FT0249, Molecular Devices, Inc.), 10 μL of assay buffer was transferred from the 384-well plate (Greiner-781280) to the cell plates and then the fluorescence signal was read. Then 10 μL of compound solution was transferred from the compound plate to the cell plates and the fluorescence signal was read. The “Max-Min” was calculated, starting from Read 91 to the maximum allowed. For agonists, activation %=(RLU−LC)/(HC−LC)*100, based on the following: RLU=relative light unit, 91 to maximum allowed signal; HC=average signal of the high concentration of agonist; LC=average signal of DMSO well. The data were fitted using GraphPad Prism 5, using the model “log(agonist) vs. response—Variable slope” to determine the EC50 value. The receptor efficacy of the test compound relative to the agonist NECA was calculated as a percentage (%) of the response to […]. Table 10 includes EC50 values for compounds described herein.

[2] = biological target: human adenosine A3 receptor (Homo sapiens (Human), UniProt P0DMS8); assay: Intracellular cAMP levels (inhibition of forskolin-stimulated cAMP production); assay type: cell-based; conditions: for EC50: CHO cells expressing human adenosine A3 receptors, forskolin 10 μM; for CAMP Efficacy (%): maximal response as percentage of the response produced by 100 nM IB-MECA
Chain of human adenosine A3 receptor (P0DMS8 whole entry): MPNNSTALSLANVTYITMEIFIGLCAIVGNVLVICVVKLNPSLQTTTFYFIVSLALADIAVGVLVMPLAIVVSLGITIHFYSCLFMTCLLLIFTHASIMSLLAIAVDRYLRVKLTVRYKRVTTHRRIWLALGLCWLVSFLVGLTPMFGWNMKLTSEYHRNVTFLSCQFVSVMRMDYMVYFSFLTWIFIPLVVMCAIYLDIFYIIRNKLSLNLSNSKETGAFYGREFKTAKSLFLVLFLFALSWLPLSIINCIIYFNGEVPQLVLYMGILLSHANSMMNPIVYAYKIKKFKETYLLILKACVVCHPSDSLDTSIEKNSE
Excerpt: Example 31: Intracellular cAMP Levels
The method followed is that published in Yates L, Clark J H, Martin T J, James S, Broadley K J, Kidd E J. Radioligand binding and functional responses of ligands for human recombinant adenosine A3 receptors. Auton Autacoid Pharmacol. 2006 April; 26(2):191-200.
Materials and Cell Culture: Adenosine deaminase was obtained from Roche (Lewes, UK). Forskolin was obtained from Sigma-Aldrich (Poole, UK). The sources of other materials are provided above in Example 1. CHO-K1 cells stably transfected with the human adenosine A3 receptor were grown in Dulbecco's modified Eagles medium with nutrient mixture F12 containing NaHCO3 and Glutamax. Media was supplemented with 10% fetal calf serum, geneticin (G418; 0.67 mg/mL), hygromycin (500 μg/mL) and adenosine deaminase (1 U/mL). Cells were maintained at 37° C. with 5% CO2 in air.
cAMP Measurements: Intracellular cAMP production was measured directly using a non-acetylation cAMP enzyme immunoassay (Amersham Biosciences, Little Chalfont, UK). Cultured CHO cells expressing human adenosine A3 receptors were allowed to plate overnight in 96-well plates in culture medium containing adenosine deaminase. Twenty-four hours later, they were incubated with adenosine analogues or compounds of the invention (0.1 nM-1 μM) for 5 min at 37° C., followed by incubation with forskolin (10 μM) for 10 min. The cells were then lysed with 200 μL of lysis reagent 1 provided with the kit for 10 min to release intracellular cAMP. Aliquots of the supernatants were then transferred to a 96-well microtitre plate coated with donkey anti-rabbit IgG; 100-μL cAMP standards (12.5-3200 fmol/well) were also added to the microtitre plate; 100 μL of rabbit anti-cAMP antibody was added to all wells and incubated at 2-5° C. for 2 h. The antiserum was made up in lysis reagent 2, which sequesters the key component in lysis reagent 1 and ensures that cAMP is free for subsequent analysis. Then 50 μL of cAMP peroxidase conjugate was added to all wells and left to incubate for 60 min at 2-5° C. to allow competition for the antibody between the un-labelled and horse radish peroxidase (HRP)-labelled cAMP. Wells were then washed with buffer and 150 μL of enzyme substrate containing 3,3′,5,5′-tetramethylbenzidine/hydrogen peroxide in 20% (v/v) dimethylformamide was added to each well and left to incubate for 60 min on a Titramax 100 microtitre plate shaker (Heidolph Instruments, Schwabach, Germany) at room temperature for color development. The reaction was stopped by the addition of 100 μL of 1 M sulfuric acid and the optical density (OD) read at 450 nm on a spectrophotometric MRX microplate reader (Dynex Technologies, Chantilly, VA, USA).
Analyses: Each sample/standard was analyzed in duplicate and the resulting OD values averaged. The percent bound (B/Bo) for each standard and sample was calculated using the following relationship: […]
where B is the specific OD for standard/sample and Bo is the specific OD for the zero standard. A standard curve was generated by plotting % B/Bo as a function of the log fmol cAMP standard per well. The fmol per well value for cAMP in each sample was then read from the graph. The results are expressed as a percent of control agonist response: (measured response/control response)*100 in the presence of the compounds of the invention. Concentration-response curves for inhibition of cAMP production were constructed for all compounds of the invention and reference compounds. The EC50 values (concentration producing a half-maximal response) were determined by non-linear regression analysis of the concentration-response curves generated with mean replicate values using Hill equation curve fitting, according to the equation:
where Y=response, A=left asymptote of the curve, D=right asymptote of the curve, C=compound concentration, and C50=EC50, and nH=slope factor. […]

Chain of ADORA3 (P0DMS8 whole entry): as above

Structure (SMILES)	EC50 [1]	Cell Calcium Efficacy (%) [1]	EC50 [2]	CAMP Efficacy (%) [2]
O[C@@H]1[C@H](O)[C@@H]2C[C@@H]2[C@H]1n1cnc2c(NCCF)nc(Cl)nc21 [Compound 36, (1R,2R,3S,4R,5S)-4-(2-chloro-6-((2-fluoroethyl)amino)-9H-purin-9-yl)bicyclo[3.1.0]hexane-2,3-diol]	9.2 nM	44.9%	–	–
O[C@@H]1[C@H](O)[C@@H]2C[C@@H]2[C@H]1n1cnc2c(NCC(F)(F)F)nc(Cl)nc21 [Compound 37, (1R,2R,3S,4R,5S)-4-(2-chloro-6-((2,2,2-trifluoroethyl)amino)-9H-purin-9-yl)bicyclo[3.1.0]hexane-2,3-diol]	12.8 nM	49.4%	–	–
O[C@@H]1[C@H](O)[C@@H]2C[C@@H]2[C@H]1n1cnc2c(NCC(F)F)nc(C#CC3CC3)nc21 [Compound 38, (1R,2R,3S,4R,5S)-4-(2-(cyclopropylethynyl)-6-((2,2-difluoroethyl)amino)-9H-purin-9-yl)bicyclo[3.1.0]hexane-2,3-diol]	14.5 nM	24.7%	1.8 nM	65.1%
CCNc1nc(C#CC2CC2)nc2c1ncn2[C@H]1[C@H](O)[C@H](O)[C@@H]2C[C@@H]21 [Compound 39, (1R,2R,3S,4R,5S)-4-(2-(cyclopropylethynyl)-6-(ethylamino)-9H-purin-9-yl)bicyclo[3.1.0]hexane-2,3-diol]	9.8 nM	15.4%	0.2 nM	54.4%
O[C@@H]1[C@H](O)[C@@H]2C[C@@H]2[C@H]1n1cnc2c(NCCF)cc(Cl)nc21 [Compound 41, (1R,2R,3S,4R,5S)-4-(5-chloro-7-((2-fluoroethyl)amino)-3H-imidazo[4,5-b]pyridin-3-yl)bicyclo[3.1.0]hexane-2,3-diol]	36.7 nM	31.3%	–	–
O[C@@H]1[C@H](O)[C@@H]2C[C@@H]2[C@H]1n1cnc2c(NCC(F)(F)F)cc(Cl)nc21 [Compound 42, (1R,2R,3S,4R,5S)-4-(5-chloro-7-((2,2,2-trifluoroethyl)amino)-3H-imidazo[4,5-b]pyridin-3-yl)bicyclo[3.1.0]hexane-2,3-diol]	43.4 nM	45.8%	–	–
CCNc1cc(Cl)nc2c1ncn2[C@H]1[C@H](O)[C@H](O)[C@@H]2C[C@@H]21 [Compound 43, (1R,2R,3S,4R,5S)-4-(5-chloro-7-(ethylamino)-3H-imidazo[4,5-b]pyridin-3-yl)bicyclo[3.1.0]hexane-2,3-diol]	5.1 nM	50.3%	–	–
Cc1cc(NCC(F)F)c2ncn([C@H]3[C@H](O)[C@H](O)[C@@H]4C[C@@H]43)c2n1 [Compound 47, (1R,2R,3S,4R,5S)-4-(7-((2,2-difluoroethyl)amino)-5-methyl-3H-imidazo[4,5-b]pyridin-3-yl)bicyclo[3.1.0]hexane-2,3-diol]	51.2 nM	33.1%	–	–
Cc1cc(NCCF)c2ncn([C@H]3[C@H](O)[C@H](O)[C@@H]4C[C@@H]43)c2n1 [Compound 48, (1R,2R,3S,4R,5S)-4-(7-((2-fluoroethyl)amino)-5-methyl-3H-imidazo[4,5-b]pyridin-3-yl)bicyclo[3.1.0]hexane-2,3-diol]	37.6 nM	13.1%	–	–
CCNc1cc(C)nc2c1ncn2[C@H]1[C@H](O)[C@H](O)[C@@H]2C[C@@H]21 [Compound 49, (1R,2R,3S,4R,5S)-4-(7-(ethylamino)-5-methyl-3H-imidazo[4,5-b]pyridin-3-yl)bicyclo[3.1.0]hexane-2,3-diol]	17.1 nM	6.8%	–	–

The next lines start with the values.

EC50 [1]	Cell Calcium Efficacy (%) [1]	EC50 [2]	CAMP Efficacy (%) [2]	Structure (SMILES)
54 nM	12.3%	–	–	Cc1cc(NCc2cc(F)ccc2F)c2ncn([C@H]3[C@H](O)[C@H](O)[C@@H]4C[C@@H]43)c2n1 [Compound 50, (1R,2R,3S,4R,5S)-4-(7-((2,5-difluorobenzyl)amino)-5-methyl-3H-imidazo[4,5-b]pyridin-3-yl)bicyclo[3.1.0]hexane-2,3-diol]
≥ 10000 nM	0.6%	–	–	CCNc1nc(Cl)nc2c1ncn2[C@H]1[C@H](O)[C@H](O)[C@]2(C(F)F)C[C@H]12 [Compound 53, (1S,2R,3S,4R,5S)-4-(2-chloro-6-(ethylamino)-9H-purin-9-yl)-1-(difluoromethyl)bicyclo[3.1.0]hexane-2,3-diol]
25.4 nM	14.2%	–	–	O[C@@H]1[C@H](O)[C@@H]2C[C@@H]2[C@H]1n1cnc2c(NCC(F)F)nc(C3CC3)nc21 [Compound 58]
≥ 10000 nM	1.7%	–	–	Cc1cc(COc2ccc(Cl)cc2CNc2cc(Cl)nc3c2ncn3[C@H]2[C@H](O)[C@H](O)[C@@H]3C[C@@H]32)on1 [Compound 75, (1R,2R,3S,4R,5S)-4-(5-chloro-7-((5-chloro-2-((3-methylisoxazol-5-yl)methoxy)benzyl)amino)-3H-imidazo[4,5-b]pyridin-3-yl)bicyclo[3.1.0]hexane-2,3-diol]
110 nM	7.2%	–	–	O[C@@H]1[C@H](O)[C@@H]2C[C@@H]2[C@H]1n1cnc2c(NCC(F)F)cc(C3CC3)nc21 [Compound 78]
